# The Kinase Knowledgebase extract (Sharma et al. 2016)
# What was measured:
# Assay in all cases: Enzyme Assay
# PIK3CA (human) = PIK3CA (human) (UniProt P42336)
# PIK3CG (human) = PIK3CG (human) (UniProt P48736)
# PIK3CD (Human) = PIK3CD (Human) (UniProt O00329)
# PIK3CB (Human) = PIK3CB (Human) (UniProt P42338)
# PIK3CB (Human), sequence (P42338 whole entry, looked up): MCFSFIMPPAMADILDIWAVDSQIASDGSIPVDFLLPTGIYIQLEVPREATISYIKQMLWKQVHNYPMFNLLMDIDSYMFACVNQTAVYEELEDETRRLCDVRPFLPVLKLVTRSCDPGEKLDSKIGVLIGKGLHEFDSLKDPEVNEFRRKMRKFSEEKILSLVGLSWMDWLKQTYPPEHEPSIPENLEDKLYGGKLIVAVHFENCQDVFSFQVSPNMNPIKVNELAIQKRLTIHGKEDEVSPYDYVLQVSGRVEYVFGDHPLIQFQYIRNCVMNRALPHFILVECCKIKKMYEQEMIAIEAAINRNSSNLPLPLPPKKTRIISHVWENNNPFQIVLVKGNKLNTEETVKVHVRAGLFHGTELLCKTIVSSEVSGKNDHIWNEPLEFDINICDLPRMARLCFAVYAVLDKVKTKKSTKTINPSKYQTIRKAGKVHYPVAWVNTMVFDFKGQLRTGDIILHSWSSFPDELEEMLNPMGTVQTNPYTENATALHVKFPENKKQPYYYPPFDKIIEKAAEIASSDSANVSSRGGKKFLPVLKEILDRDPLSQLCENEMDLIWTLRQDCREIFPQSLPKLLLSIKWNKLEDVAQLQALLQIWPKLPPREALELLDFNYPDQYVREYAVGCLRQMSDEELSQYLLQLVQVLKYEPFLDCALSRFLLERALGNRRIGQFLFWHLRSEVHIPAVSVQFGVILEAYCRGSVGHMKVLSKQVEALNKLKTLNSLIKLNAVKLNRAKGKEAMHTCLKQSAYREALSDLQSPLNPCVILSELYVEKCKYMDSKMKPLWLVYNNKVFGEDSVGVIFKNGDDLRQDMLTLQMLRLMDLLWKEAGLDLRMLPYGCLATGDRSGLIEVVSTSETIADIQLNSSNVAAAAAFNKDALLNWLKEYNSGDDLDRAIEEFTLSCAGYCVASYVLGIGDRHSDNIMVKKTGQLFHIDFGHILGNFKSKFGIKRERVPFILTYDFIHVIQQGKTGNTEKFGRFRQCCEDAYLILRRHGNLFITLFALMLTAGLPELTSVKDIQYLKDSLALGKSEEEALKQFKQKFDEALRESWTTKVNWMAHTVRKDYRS
# PIK3CA (human), sequence (P42336 whole entry, looked up): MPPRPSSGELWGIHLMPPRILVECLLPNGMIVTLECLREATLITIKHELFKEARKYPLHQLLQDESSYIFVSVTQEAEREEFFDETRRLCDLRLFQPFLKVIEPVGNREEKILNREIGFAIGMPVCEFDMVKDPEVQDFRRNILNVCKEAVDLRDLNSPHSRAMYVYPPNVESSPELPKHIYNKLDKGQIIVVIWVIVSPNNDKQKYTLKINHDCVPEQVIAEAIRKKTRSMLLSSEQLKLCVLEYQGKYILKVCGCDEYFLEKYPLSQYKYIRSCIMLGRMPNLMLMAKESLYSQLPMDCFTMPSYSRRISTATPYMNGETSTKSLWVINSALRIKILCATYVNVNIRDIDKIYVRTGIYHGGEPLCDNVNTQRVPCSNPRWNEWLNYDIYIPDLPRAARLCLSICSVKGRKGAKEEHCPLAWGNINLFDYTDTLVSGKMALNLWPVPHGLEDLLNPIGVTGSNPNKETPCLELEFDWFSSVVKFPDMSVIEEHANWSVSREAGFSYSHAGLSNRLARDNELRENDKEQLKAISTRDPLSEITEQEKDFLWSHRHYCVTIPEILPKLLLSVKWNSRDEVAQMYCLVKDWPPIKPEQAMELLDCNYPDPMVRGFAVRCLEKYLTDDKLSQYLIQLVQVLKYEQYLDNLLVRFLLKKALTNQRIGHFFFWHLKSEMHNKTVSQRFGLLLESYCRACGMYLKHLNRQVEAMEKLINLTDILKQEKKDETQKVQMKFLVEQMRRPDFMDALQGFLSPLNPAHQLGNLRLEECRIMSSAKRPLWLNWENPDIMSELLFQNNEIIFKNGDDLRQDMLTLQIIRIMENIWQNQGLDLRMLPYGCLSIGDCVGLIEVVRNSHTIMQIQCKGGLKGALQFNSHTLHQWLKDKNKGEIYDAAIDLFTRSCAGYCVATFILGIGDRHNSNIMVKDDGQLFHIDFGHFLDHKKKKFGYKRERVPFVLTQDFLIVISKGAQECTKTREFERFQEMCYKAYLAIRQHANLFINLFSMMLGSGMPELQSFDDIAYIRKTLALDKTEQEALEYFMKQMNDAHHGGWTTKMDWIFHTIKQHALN
# PIK3CD (Human), sequence (O00329 whole entry, looked up): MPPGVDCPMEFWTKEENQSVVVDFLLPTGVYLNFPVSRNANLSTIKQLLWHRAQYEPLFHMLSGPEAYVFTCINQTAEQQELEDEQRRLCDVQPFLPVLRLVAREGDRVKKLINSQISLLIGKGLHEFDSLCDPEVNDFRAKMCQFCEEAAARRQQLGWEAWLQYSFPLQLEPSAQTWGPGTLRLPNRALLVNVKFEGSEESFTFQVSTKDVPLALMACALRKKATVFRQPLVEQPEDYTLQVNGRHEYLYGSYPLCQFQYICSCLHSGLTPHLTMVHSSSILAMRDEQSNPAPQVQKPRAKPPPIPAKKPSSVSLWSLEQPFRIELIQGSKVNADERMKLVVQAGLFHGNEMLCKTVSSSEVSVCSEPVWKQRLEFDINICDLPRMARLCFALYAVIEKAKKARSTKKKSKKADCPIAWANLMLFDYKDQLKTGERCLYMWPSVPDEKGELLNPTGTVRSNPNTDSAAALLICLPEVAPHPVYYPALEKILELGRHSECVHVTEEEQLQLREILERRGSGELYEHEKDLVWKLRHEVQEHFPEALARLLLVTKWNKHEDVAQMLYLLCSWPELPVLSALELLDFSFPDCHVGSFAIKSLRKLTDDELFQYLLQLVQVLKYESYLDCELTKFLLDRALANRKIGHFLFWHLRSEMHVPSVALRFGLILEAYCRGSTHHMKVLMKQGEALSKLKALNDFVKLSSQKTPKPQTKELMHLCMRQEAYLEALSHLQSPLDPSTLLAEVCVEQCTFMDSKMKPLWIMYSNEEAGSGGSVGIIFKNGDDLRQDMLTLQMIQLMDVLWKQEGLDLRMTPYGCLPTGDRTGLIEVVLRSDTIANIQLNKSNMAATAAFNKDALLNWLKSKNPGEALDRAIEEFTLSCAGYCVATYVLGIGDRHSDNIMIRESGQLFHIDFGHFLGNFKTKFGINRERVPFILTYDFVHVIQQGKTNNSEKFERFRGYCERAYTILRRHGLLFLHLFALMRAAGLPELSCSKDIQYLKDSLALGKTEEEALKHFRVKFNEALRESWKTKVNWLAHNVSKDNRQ
# PIK3CG (human), sequence (P48736 whole entry, looked up): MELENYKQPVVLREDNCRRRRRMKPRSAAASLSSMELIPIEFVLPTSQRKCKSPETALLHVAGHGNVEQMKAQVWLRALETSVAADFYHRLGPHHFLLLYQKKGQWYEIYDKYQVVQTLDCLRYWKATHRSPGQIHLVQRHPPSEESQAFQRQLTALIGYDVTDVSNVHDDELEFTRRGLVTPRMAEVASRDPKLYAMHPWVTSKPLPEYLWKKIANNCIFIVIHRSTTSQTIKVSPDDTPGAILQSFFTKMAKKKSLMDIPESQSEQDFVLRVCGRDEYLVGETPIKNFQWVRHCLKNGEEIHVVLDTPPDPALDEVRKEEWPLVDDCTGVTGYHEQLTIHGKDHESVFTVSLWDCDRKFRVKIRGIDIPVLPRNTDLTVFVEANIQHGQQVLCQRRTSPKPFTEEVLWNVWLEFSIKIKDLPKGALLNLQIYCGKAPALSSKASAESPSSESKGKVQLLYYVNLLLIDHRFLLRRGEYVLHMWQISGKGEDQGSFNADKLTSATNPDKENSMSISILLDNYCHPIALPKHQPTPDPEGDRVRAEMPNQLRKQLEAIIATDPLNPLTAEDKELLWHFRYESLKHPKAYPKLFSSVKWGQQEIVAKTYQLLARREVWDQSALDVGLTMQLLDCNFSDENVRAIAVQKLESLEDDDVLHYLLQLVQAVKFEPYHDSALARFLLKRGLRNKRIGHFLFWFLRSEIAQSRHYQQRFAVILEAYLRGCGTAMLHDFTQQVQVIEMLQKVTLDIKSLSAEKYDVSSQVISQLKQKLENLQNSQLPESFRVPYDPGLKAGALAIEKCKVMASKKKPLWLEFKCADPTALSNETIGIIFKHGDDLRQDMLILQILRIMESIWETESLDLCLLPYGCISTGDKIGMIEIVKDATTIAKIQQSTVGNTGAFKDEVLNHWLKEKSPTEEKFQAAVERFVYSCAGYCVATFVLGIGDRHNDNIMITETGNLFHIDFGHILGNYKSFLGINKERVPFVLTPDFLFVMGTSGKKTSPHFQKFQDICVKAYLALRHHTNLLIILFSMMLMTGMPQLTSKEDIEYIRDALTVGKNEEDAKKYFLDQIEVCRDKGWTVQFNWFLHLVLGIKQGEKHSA
IC50 (PIK3CA (human)) [nM],IC50 (PIK3CG (human)) [nM],IC50 (PIK3CD (Human)) [nM],IC50 (PIK3CB (Human)) [nM],Compound
> 10000,100 to 1000,,,Cc1ccccc1-n1c(Cn2nc(-c3cc(O)cc(F)c3)c3c(N)ncnc32)cc2cccc(F)c2c1=O
,100 to 1000,< 100,,Cc1cccc2cc(Cn3nc(-c4cn[nH]c4)c4c(N)ncnc43)n(-c3ccccc3)c(=O)c12
> 10000,100 to 1000,< 100,,Cc1cccc2cc(Cn3nc(-c4cn[nH]c4)c4c(N)ncnc43)n(-c3ccccc3C(F)(F)F)c(=O)c12
> 10000,100 to 1000,100 to 1000,,Cc1cccnc1-n1c(Cn2nc(I)c3c(N)ncnc32)cc2cccc(C)c2c1=O
> 10000,100 to 1000,,,Cc1ccccc1-n1c(Cn2nc(Cl)c3c(N)ncnc32)cc2cccc(C)c2c1=O
,100 to 1000,< 100,,C=Cc1nn(Cc2cc3cccc(C)c3c(=O)n2-c2ccccc2)c2ncnc(N)c12
> 10000,,100 to 1000,> 10000,Cc1cccc2cc(Cn3nc(-c4ccn[nH]4)c4c(N)ncnc43)n(-c3ccccc3F)c(=O)c12
> 10000,100 to 1000,100 to 1000,,Cc1ccccc1-n1c(Cn2nc(-c3ccc(Cl)cc3)c3c(N)ncnc32)cc2cccc(C)c2c1=O
> 10000,100 to 1000,< 100,,Cc1cccc2cc(Cn3nc(C(F)F)c4c(N)ncnc43)n(-c3ccccc3)c(=O)c12
> 10000,100 to 1000,,,Cc1cccc2cc(Cn3nc(-c4cn[nH]c4)c4c(N)ncnc43)n(-c3ccccc3F)c(=O)c12
> 10000,,< 100,> 10000,CCc1nn(Cc2cc3cccc(C)c3c(=O)n2-c2ccccc2C)c2ncnc(N)c12
> 10000,,100 to 1000,> 10000,Cc1cccc2cc(Cn3nc(Cl)c4c(N)ncnc43)n(-c3ccccc3F)c(=O)c12
> 10000,100 to 1000,100 to 1000,,COc1cccc(-c2nn(Cc3cc4cccc(C)c4c(=O)n3-c3ccccc3C)c3ncnc(N)c23)c1
> 10000,,100 to 1000,> 10000,COc1cc(-c2nn(Cc3cc4cccc(C)c4c(=O)n3-c3ccccc3C)c3ncnc(N)c23)ccc1Cl
> 10000,,100 to 1000,> 10000,C=Cc1nn(Cc2cc3cccc(C)c3c(=O)n2-c2ccccc2F)c2ncnc(N)c12
> 10000,,100 to 1000,> 10000,Cc1cccc2cc(Cn3nc(-c4ccc(O)c(Cl)c4)c4c(N)ncnc43)n(-c3ccccc3F)c(=O)c12
> 10000,,100 to 1000,> 10000,Cc1ccccc1-n1c(Cn2nc(-c3cn[nH]c3)c3c(N)ncnc32)cc2ccccc2c1=O
> 10000,,100 to 1000,> 10000,Cc1ccccc1-n1c(Cn2nc(C#C[C@@H](C)O)c3c(N)ncnc32)cc2cccc(F)c2c1=O
,100 to 1000,,,Cc1cccc2cc(Cn3nc(-c4ccc(O)cc4)c4c(N)ncnc43)n(-c3ccccc3F)c(=O)c12
> 10000,,100 to 1000,> 10000,Cc1cccc2cc(Cn3nc(Br)c4c(N)ncnc43)n(-c3ccccc3F)c(=O)c12
,100 to 1000,,,Cc1cccc2cc(Cn3nc(I)c4c(N)ncnc43)n(-c3ccccc3F)c(=O)c12
> 10000,,100 to 1000,> 10000,COc1ccc(-c2nn(Cc3cc4cccc(C)c4c(=O)n3-c3ccccc3C)c3ncnc(N)c23)cc1OC
> 10000,100 to 1000,,,CCc1ccccc1-n1c(Cn2nc(C#C[C@@H](C)O)c3c(N)ncnc32)cc2cccc(C)c2c1=O
> 10000,,100 to 1000,> 10000,Cc1ccccc1-n1c(Cn2nc(-c3ccc(O)cc3)c3c(N)ncnc32)cc2cccc(C)c2c1=O
> 10000,,100 to 1000,> 10000,Nc1ncnc2c1c(-c1cn[nH]c1)nn2Cc1cc2cccc(F)c2c(=O)n1-c1ccccc1F
> 10000,,100 to 1000,> 10000,COc1cc(F)cc(-c2nn(Cc3cc4cccc(C)c4c(=O)n3-c3ccccc3C)c3ncnc(N)c23)c1

# Continued, compound first:
Compound,IC50 (PIK3CA (human)) [nM],IC50 (PIK3CG (human)) [nM],IC50 (PIK3CD (Human)) [nM],IC50 (PIK3CB (Human)) [nM]
Cc1cccc2cc(Cn3nc(-c4cccc(O)c4)c4c(N)ncnc43)n(C3CCCC3)c(=O)c12,> 10000,100 to 1000,,
Cc1cccc2cc(Cn3nc(-c4ccc5nc(N)oc5c4)c4c(N)ncnc43)n(-c3ccccc3)c(=O)c12,,< 100,100 to 1000,
Cc1ccccc1-n1c(Cn2nc(-c3cccc(O)c3)c3c(N)ncnc32)cc2ccccc2c1=O,> 10000,100 to 1000,,
Cc1ccccc1-n1c(Cn2nc(C(=O)NO)c3c(N)ncnc32)cc2cccc(C)c2c1=O,> 10000,100 to 1000,100 to 1000,
Cc1cccc2cc(Cn3nc(-c4ccc(Cl)c(O)c4)c4c(N)ncnc43)n(C3CCCC3)c(=O)c12,,100 to 1000,100 to 1000,
Cc1cccc2cc(Cn3nc(-c4ccc5nc(N)sc5c4)c4c(N)ncnc43)n(-c3ccccc3)c(=O)c12,< 100,,< 100,100 to 1000
CCC(Nc1ncnc2[nH]cnc12)c1cc2cccc(C)c2c(=O)n1C1CCC1 (stereo not given),> 10000,100 to 1000,< 100,
Cc1cccc2cc([C@H](C)Nc3ncnc4[nH]cc(C#N)c34)n(-c3ccccc3)c(=O)c12,100 to 1000,,< 100,< 100
Cc1cccc2cc(C(C)Nc3ncnc4[nH]cnc34)n(C3CCN(C)CC3)c(=O)c12 (stereo not given),> 10000,,< 100,100 to 1000
Cc1cccc2cc([C@H](C)Nc3ncnc4[nH]cc(Br)c34)n(C3CC3)c(=O)c12,100 to 1000,,< 100,< 100
CCC(Nc1ncnc2[nH]cnc12)c1cc2cccc(C)c2c(=O)n1-c1cc(F)cc(F)c1 (stereo not given),> 10000,,< 100,> 10000
Cc1cccc2cc(C(C)Nc3ncnc4[nH]cnc34)n(C(C)C)c(=O)c12 (stereo not given),,100 to 1000,< 100,
Cc1cccc2cc([C@H](C)Nc3nc(N)ncc3C(N)=O)n(C3CC3)c(=O)c12,> 10000,,> 10000,> 10000
Cc1cccc2cc(C(C)Nc3nc(N)nc4[nH]cnc34)n(-c3ccccc3)c(=O)c12 (stereo not given),100 to 1000,,< 100,< 100
Cc1cccc2cc([C@H](C)Nc3cc(N)nc(Cl)n3)n(-c3ccccc3)c(=O)c12,> 10000,,100 to 1000,> 10000
CCC(Nc1ncnc2[nH]cnc12)c1cc2ccccc2c(=O)n1-c1ccccc1 (stereo not given),> 10000,,< 100,> 10000
Cc1cccc2cc(C(C)Nc3nc(O)ncc3N)n(-c3ccccc3)c(=O)c12 (stereo not given),> 10000,,> 10000,> 10000
Cc1cccc2cc([C@H](C)Nc3ncnc4[nH]cc(C(N)=O)c34)n(-c3ccccc3)c(=O)c12,100 to 1000,,< 100,< 100
CC(Nc1ncnc2[nH]cnc12)c1cc2ccccc2c(=O)n1-c1ccccc1 (stereo not given),> 10000,100 to 1000,< 100,
CC(=O)Nc1nc2ccc(-c3nn(Cc4cc5cccc(C)c5c(=O)n4-c4ccccc4C)c4ncnc(N)c34)cc2o1,> 10000,,< 100,> 10000

Compound,IC50 (PIK3CA (human)) [nM],IC50 (PIK3CG (human)) [nM],IC50 (PIK3CD (Human)) [nM],IC50 (PIK3CB (Human)) [nM]
Cc1cccc2cc([C@H](C)Nc3ncnc4[nH]cc(F)c34)n(C3CC3)c(=O)c12,100 to 1000,,< 100,< 100
CC(=O)Nc1nc2ccc(-c3nn(Cc4cc5cccc(C)c5c(=O)n4-c4ccccc4)c4ncnc(N)c34)cc2o1,,100 to 1000,100 to 1000,
Cc1cccc2cc([C@H](C)Nc3ncnc4[nH]cc(Cl)c34)n(-c3ccccc3)c(=O)c12,100 to 1000,,< 100,< 100
Cc1cccc2cc([C@H](C)NC3CCOCC3)n(-c3ccccc3)c(=O)c12,> 10000,,> 10000,> 10000
Cc1cccc2cc([C@H](C)Nc3nc(N)nc4[nH]cnc34)n(-c3ccccc3)c(=O)c12,100 to 1000,,< 100,< 100
Cc1cccc2cc(Cn3nc(-c4cc(O)cc(F)c4)c4c(N)ncnc43)n(-c3ccccc3OCCN3CCOCC3)c(=O)c12,,100 to 1000,,
Cc1cccc2cc(C(C)Nc3ncnc4[nH]cnc34)n(-c3cccc(F)c3)c(=O)c12 (stereo not given),,100 to 1000,< 100,
Cc1cccnc1-n1c(Cn2nc(C#C[C@@H](C)O)c3c(N)ncnc32)cc2cccc(C)c2c1=O,> 10000,,100 to 1000,> 10000
Cc1cccc2cc([C@H](C)Nc3cc(N)nc(Cl)n3)n(C3CC3)c(=O)c12,> 10000,,> 10000,> 10000
COC(=O)c1nn(Cc2cc3cccc(C)c3c(=O)n2-c2ccccc2C)c2ncnc(N)c12,> 10000,,100 to 1000,> 10000
Cc1cccc2cc([C@H](C)Nc3ncnc4[nH]cnc34)n(-c3cccc(F)c3)c(=O)c12,> 10000,,< 100,100 to 1000
Cc1cccc2cc([C@H](C)Nc3ncnc4[nH]c(O)nc34)n(-c3ccccc3)c(=O)c12,> 10000,,> 10000,> 10000
Cc1cccc2cc(C(C)Nc3ncnc4[nH]cnc34)n(C3CCOCC3)c(=O)c12 (stereo not given),,100 to 1000,< 100,
Cc1cccc2cc(Cn3nc(I)c4c(N)ncnc43)n(C3CCCCC3)c(=O)c12,> 10000,,100 to 1000,> 10000
Cc1cccc2cc([C@H](C)Nc3ncnc4[nH]cc(C#N)c34)n(C3CC3)c(=O)c12,100 to 1000,,< 100,< 100
Cc1cccc2cc(Cn3nc(-c4ccc5oc(N)nc5c4)c4c(N)ncnc43)n(C3CCC3)c(=O)c12,100 to 1000,,< 100,100 to 1000
Cc1cccc2cc([C@H](C)Nc3ncnc4[nH]cnc34)n(-c3ccc(F)cc3)c(=O)c12,100 to 1000,,< 100,< 100
Cc1cccc2cc(Cn3nc(-c4ccc5oc(N)nc5c4)c4c(N)ncnc43)n(C3CC3)c(=O)c12,< 100,,< 100,100 to 1000
Cc1cccc2cc(C(C)Nc3nc(Cl)ncc3N)n(-c3ccccc3)c(=O)c12 (stereo not given),> 10000,,> 10000,> 10000
